Columns and labels:
[1] = biological target: PKA (Bos taurus, UniProt P00517); test: Kinase activity at ATP Km,app, PKA; format: biochemical, bovine; conditions: 40 min, compound 2 μM
Procedure: PKA Kinase Activity: In a final reaction volume of 25 μl, PKA (b) (5-10 mU) is incubated with 8 mM MOPS pH 7.0, 0.2 mM EDTA, 30 μM LRRASLG (Kemptide), 10 mM MgAcetate and [γ-^33P-ATP] (specific activity approx. 500 cpm/pmol, concentration as required). The reaction is initiated by the addition of the MgATP mix. After incubation for 40 minutes at room temperature, the reaction is stopped by the addition of 5 μl of a 3% phosphoric acid solution. 10 μl of the reaction is the spotted onto a P30 filtermat and washed three times for 5 minutes in 50 mM phosphoric acid and once in methanol prior to drying and scintillation counting.

[2] = biological target: Lck (Homo sapiens, UniProt P06239); test: Kinase activity at ATP Km,app, Lck; format: biochemical; conditions: 40 min, compound 2 μM
Procedure: (§1) Lck Kinase Activity: In a final reaction volume of 25 ml, Lck (h) (5-10 mU) is incubated with 50 mM Tris pH 7.5, 0.1 mM EGTA, 0.1 mM Na3VO4, 250 μM KVEKIGEGTYGVVYK (Cdc2 peptide), 10 mM MgAcetate and [γ-^33P-ATP] (specific activity approx. 500 cpm/pmol, concentration as required). The reaction is initiated by the addition of the MgATP mix. After incubation for 40 minutes at room temperature, the reaction is stopped by the addition of 5 μl of a 3% phosphoric acid solution. 10 μl of the reaction is then spotted onto a P30 filtermat and washed three times for 5 minutes in 75 mM phosphoric acid and once in methanol prior to drying and scintillation counting.

[3] = biological target: Akt1 (Homo sapiens, UniProt P31749); test: Kinase activity at ATP Km,app, Akt1; format: biochemical; conditions: compound 2 μM
[4] = biological target: IGF1R (Homo sapiens, UniProt P08069); test: Kinase activity at ATP Km,app, IGF1R; format: biochemical; conditions: 40 min, compound 2 μM
Procedure: as §1, with “IGF-1R” for “Lck”, “Activity” for “Activity:”, “μl, IGF-1R” for “ml, Lck”, “Na3VO4, 0.1% β-mercaptoethanol,” for “Na3VO4,”, “KKKSPEGYVNIEFG, 10 mM MnCl2,” for “KVEKIGEGTYGVVYK (Cdc2 peptide),”

[5] = biological target: CK2-alpha 1 (Homo sapiens, UniProt P68400); test: Kinase activity at ATP Km,app, CK2-alpha 1; format: biochemical; conditions: compound 2 μM
[6] = biological target: EGFR (Homo sapiens, UniProt P00533); test: Kinase activity at ATP Km,app, EGFR; format: biochemical; conditions: compound 2 μM
[7] = biological target: T1, Flt3 (Homo sapiens, UniProt P36888); test: Kinase activity at ATP Km,app, Flt3; format: biochemical; conditions: 40 min, compound 2 μM
T1 sequence (P36888 27-993): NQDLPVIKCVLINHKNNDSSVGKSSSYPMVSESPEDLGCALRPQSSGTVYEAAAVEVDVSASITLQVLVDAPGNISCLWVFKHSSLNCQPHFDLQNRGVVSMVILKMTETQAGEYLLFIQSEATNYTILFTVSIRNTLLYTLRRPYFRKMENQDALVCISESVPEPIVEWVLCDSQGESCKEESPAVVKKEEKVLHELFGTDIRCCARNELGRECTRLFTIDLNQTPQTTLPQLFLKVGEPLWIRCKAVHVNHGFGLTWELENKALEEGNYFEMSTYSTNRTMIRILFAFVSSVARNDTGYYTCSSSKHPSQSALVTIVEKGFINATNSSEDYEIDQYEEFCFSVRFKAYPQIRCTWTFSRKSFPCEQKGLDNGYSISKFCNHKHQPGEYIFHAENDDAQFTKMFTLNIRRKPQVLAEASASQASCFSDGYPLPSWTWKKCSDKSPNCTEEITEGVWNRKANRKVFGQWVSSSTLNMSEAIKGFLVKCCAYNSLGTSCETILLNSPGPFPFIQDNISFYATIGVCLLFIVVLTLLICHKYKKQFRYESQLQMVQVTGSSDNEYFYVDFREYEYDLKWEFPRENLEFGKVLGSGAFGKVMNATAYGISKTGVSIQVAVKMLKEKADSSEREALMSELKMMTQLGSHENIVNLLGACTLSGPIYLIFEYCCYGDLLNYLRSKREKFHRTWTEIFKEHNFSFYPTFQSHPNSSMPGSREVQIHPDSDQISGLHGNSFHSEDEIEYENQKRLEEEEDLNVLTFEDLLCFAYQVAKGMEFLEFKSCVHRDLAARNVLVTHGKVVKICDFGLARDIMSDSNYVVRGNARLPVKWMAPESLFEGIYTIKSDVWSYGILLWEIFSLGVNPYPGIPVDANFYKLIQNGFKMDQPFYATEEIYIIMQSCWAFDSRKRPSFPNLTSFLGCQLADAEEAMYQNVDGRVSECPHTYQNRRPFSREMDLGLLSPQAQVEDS
Procedure: Flt3 Kinase Activity: In a final reaction volume of 25 μl, Flt3 (h) (5-10 mU) is incubated with 8 mM MOPS pH 7.0, 0.2 mM EDTA, 50 μM EAIYAAPFAKKK, 10 mM MgAcetate and [γ-^33P-ATP] (specific activity approx. 500 cpm/pmol, concentration as required). The reaction is initiated by the addition of the MgATP mix. After incubation for 40 minutes at room temperature, the reaction is stopped by the addition of […] of a 3% phosphoric acid solution. […] of the reaction is then spotted onto a P30 filtermat and washed three times for 5 minutes in 75 mM phosphoric acid and once in methanol prior to drying and scintillation counting.

[8] = biological target: Src (Homo sapiens, UniProt P12931); test: Kinase activity at ATP Km,app, Src; format: biochemical; conditions: 40 min, compound 2 μM
Procedure: cSRC Kinase Activity: In a final reaction volume of 25 μl, cSRC (h) (5-'0 mU) is incubated with 8 mM MOPS pH 7.0, 0.2 mM EDTA, 250 μM KVEKIGEGTYGVVYK (Cdc2 peptide), 10 mM MgAcetate and [γ-^33P-ATP] (specific activity approx. 500 cpm/pmol, concentratin as required). The reaction is initiated by the addition of the MgATP mix. After incubation for 40 minutes at room temperature, the reaction is stopped by the addition of 5 μl of a 3% phosphoric acid solution. 10 μl of the reaction is then spotted onto a P30 filtermat and washed three times for 5 minutes in 75 mM phosphoric acid and once in methanol prior to drying and scintillation counting.

CK2-alpha 1, sequence (P68400 whole entry): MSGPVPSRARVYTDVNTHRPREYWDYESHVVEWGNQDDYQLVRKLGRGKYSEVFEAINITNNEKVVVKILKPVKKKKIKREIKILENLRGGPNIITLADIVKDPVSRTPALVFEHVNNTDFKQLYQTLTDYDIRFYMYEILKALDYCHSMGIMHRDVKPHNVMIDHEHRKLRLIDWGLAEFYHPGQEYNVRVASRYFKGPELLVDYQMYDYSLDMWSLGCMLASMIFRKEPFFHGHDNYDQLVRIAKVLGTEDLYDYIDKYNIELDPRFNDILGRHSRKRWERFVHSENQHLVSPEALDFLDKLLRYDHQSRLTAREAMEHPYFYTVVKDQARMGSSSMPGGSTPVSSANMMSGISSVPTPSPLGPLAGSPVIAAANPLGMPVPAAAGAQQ
IGF1R, sequence (P08069 31-1367): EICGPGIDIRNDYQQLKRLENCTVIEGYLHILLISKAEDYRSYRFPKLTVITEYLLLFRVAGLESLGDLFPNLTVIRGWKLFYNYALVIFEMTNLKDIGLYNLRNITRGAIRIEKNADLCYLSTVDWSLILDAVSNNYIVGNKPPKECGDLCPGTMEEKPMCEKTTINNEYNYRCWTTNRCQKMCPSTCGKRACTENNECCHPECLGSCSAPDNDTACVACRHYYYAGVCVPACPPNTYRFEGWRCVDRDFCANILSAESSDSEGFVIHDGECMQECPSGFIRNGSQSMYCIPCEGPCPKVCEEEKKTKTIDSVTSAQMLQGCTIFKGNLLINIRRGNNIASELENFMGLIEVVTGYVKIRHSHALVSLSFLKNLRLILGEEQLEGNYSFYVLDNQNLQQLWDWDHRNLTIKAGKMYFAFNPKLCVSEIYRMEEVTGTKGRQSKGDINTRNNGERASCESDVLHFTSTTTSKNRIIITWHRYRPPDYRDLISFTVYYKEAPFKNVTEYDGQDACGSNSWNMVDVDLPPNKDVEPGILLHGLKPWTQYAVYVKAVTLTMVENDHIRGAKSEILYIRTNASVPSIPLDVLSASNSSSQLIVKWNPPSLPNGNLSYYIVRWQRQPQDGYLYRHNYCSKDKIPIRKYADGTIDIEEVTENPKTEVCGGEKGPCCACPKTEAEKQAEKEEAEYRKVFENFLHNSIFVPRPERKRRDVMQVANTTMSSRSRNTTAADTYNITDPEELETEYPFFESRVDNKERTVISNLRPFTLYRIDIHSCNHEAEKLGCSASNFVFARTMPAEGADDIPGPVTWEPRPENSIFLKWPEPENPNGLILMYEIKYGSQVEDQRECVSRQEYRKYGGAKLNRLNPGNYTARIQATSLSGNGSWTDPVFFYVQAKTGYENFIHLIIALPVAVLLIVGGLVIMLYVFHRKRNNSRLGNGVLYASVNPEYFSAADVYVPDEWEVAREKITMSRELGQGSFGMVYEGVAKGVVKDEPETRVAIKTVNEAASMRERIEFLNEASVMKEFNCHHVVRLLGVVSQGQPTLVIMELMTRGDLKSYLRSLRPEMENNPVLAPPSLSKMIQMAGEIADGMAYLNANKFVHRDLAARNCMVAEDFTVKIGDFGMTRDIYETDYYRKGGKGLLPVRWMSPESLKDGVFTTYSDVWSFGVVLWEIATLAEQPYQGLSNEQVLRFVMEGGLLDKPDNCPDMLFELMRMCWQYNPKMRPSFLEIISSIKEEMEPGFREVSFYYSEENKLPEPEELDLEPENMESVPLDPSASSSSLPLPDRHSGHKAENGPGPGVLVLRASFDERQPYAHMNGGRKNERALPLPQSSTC
Akt1, sequence (P31749 whole entry, species assumed): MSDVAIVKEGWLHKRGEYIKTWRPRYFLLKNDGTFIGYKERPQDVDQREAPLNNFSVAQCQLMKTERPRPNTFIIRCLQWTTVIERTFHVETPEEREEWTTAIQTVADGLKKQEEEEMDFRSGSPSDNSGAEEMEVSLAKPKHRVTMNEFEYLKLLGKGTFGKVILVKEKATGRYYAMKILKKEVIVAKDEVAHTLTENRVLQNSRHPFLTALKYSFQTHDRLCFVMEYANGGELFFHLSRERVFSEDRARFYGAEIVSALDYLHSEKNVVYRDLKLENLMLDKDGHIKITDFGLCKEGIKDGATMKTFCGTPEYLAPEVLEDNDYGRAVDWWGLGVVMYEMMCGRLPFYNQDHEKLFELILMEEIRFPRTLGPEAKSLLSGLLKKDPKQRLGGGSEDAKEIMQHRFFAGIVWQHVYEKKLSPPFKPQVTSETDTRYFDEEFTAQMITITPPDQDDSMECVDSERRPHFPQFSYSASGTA
EGFR, sequence (P00533 25-1210, species assumed): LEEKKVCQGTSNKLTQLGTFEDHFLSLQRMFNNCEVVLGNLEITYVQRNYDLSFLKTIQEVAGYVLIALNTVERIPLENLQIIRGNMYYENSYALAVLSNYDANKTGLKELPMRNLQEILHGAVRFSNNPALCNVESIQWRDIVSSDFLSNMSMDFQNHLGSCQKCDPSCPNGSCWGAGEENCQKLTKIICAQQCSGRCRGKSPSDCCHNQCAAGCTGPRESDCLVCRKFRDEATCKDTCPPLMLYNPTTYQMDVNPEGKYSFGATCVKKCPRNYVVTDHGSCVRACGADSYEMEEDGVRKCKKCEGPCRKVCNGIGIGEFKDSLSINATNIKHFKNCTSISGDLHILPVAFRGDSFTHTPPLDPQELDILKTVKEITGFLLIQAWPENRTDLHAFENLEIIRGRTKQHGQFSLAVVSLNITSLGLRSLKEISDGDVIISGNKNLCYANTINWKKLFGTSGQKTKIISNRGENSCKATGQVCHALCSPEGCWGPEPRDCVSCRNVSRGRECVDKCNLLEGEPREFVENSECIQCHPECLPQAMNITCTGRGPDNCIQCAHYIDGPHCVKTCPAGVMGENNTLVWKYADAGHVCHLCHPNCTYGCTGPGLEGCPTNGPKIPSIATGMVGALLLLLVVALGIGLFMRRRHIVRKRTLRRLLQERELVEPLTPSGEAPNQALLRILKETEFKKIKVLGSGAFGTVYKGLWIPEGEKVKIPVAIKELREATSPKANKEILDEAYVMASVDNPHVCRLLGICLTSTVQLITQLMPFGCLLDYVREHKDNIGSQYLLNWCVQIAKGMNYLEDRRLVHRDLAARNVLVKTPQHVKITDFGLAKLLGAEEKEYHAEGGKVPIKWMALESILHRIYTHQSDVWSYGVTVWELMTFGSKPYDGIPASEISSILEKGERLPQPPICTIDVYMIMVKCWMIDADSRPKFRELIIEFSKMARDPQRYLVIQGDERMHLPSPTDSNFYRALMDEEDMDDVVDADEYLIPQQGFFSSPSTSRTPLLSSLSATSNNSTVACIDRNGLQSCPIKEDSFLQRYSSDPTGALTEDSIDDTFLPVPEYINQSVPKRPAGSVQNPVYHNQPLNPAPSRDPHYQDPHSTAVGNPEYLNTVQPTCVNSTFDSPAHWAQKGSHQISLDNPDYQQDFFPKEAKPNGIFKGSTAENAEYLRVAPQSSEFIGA
Src, sequence (P12931 whole entry): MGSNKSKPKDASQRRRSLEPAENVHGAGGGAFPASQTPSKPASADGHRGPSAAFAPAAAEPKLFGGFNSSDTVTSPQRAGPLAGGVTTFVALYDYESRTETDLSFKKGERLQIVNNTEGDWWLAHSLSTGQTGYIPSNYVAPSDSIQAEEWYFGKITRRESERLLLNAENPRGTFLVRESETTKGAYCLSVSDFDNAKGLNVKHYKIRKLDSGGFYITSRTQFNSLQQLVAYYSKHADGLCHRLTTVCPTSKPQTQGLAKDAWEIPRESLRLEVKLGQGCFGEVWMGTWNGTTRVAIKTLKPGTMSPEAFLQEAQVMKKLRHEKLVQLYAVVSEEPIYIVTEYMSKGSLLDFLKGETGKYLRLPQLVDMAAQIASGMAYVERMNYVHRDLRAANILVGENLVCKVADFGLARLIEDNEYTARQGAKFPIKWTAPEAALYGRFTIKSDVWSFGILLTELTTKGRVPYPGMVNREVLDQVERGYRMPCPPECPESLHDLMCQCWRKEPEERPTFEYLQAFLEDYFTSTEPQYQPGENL
Lck, sequence (P06239 whole entry): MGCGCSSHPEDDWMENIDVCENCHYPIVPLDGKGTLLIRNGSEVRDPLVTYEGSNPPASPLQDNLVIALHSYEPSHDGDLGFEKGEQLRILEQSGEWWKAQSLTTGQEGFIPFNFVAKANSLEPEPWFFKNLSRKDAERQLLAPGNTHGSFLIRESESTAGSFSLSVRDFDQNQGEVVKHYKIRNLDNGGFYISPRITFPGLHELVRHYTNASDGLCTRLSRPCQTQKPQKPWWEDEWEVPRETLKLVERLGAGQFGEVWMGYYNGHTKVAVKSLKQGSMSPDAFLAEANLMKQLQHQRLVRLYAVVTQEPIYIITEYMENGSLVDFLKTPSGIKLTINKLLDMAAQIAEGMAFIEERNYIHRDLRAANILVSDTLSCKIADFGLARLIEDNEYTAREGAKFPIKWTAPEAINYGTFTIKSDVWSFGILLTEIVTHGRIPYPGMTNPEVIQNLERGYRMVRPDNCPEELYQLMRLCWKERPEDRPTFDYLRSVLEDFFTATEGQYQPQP

Structure (SMILES) | inhibition at 2 µM [1] | inhibition at 2 µM [2] | inhibition at 2 µM [3] | inhibition at 2 µM [4] | inhibition at 2 µM [5] | % Inhibition at ATP Km,app [6] | inhibition at 2 µM [7] | inhibition at 2 µM [8]
CC(C)(C)c1cc(C(=O)N2CCNS(=O)(=O)CC2)c(NC(=O)Nc2ccc(Oc3ccncc3)cc2)s1 [Example 1, 1-(5-tert-Butyl-3-(1,1-dioxo-1λ^6-[1,2,5]thiadiazepane-5-carbonyl)thiophen-2-yl)-3-(4-(pyridin-4-yloxy)phenyl)urea] | 0 to 25% | 0 to 25% | 0 to 25% | 0 to 25% | 0 to 25% | 0-25% | 76 to 100% | 0 to 25%
CC(C)(C)c1cc(C(=O)N2CCNC(=O)C2)c(NC(=O)Nc2ccc(Oc3ccncc3)cc2)s1 [Example 2, 1-(5-tert-Butyl-3-(3-oxo-piperazine-1-carbonyl)thiophen-2-yl)-3-(4-(pyridin-4-yloxy)phenyl)urea] | 0 to 25% | 0 to 25% | 0 to 25% | 0 to 25% | 0 to 25% | 0-25% | 76 to 100% | 0 to 25%
CC(C)(C)c1cc(C(=O)N2CCNC(=O)CC2)c(NC(=O)Nc2ccc(Oc3ccncc3)cc2)s1 [Example 4, 1-(5-tert-Butyl-3-(5-oxo-[1,4]diazepane-1-carbonyl)thiophen-2-yl)-3-(4-(pyridin-4-yloxy)phenyl)urea] | 0 to 25% | 0 to 25% | 0 to 25% | 0 to 25% | 0 to 25% | 0-25% | 76 to 100% | 0 to 25%
